≈ marks a conversion by molar mass, not a printed value.
Assays:
Nocardia asteroides = experiment: MIC agar dilution, aerobic and facultative bacteria; conditions: Culture # 5173
Streptococcus bovis = experiment: as above; conditions: Culture # 1699
Clostridium perfringens = experiment: microbe, parasite or virus in culture; type: cell-based
P. cepacia = experiment: MIC agar dilution, aerobic and facultative bacteria; conditions: Culture # 1684
Fusobacterium nucleatum = experiment: MIC agar dilution, anaerobic bacteria; type: cell-based; conditions: Culture # 2478
B. disiens = experiment: MIC agar dilution, anaerobic bacteria; type: cell-based; conditions: Culture # 1763
B. thetaiotaomicron = experiment: MIC agar dilution, anaerobic bacteria; type: cell-based
Fusobacterium species = experiment: MIC agar dilution, anaerobic bacteria; type: cell-based; conditions: Culture # 1770
Klebsiella pneumoniae = experiment: MIC agar dilution, aerobic and facultative bacteria; conditions: Culture # 2518
E. coli = experiment: as above; type: cell-based
C. ramosum = experiment: MIC agar dilution, anaerobic bacteria; type: cell-based; conditions: Culture # 2482
Micrococcus luteus = experiment: MIC agar dilution, aerobic and facultative bacteria
Staphylococcus aureus = experiment: as above
S. pyogenes = experiment: as above
Mycobacterium smegmatis = experiment: as above; conditions: Culture # 5171
B. vulgatus = experiment: MIC agar dilution, anaerobic bacteria; type: cell-based
Bacteriodes fragilis = experiment: MIC agar dilution, anaerobic bacteria; type: cell-based
Enterobacter aerogenes = experiment: MIC agar dilution, aerobic and facultative bacteria; conditions: Culture # 1677
B. bivius = experiment: MIC agar dilution, anaerobic bacteria; type: cell-based; conditions: Culture # 2483
Candida albicans = experiment: MIC agar dilution, aerobic and facultative bacteria; conditions: Culture # 3622
P. anaerobius = experiment: MIC agar dilution, anaerobic bacteria; type: cell-based; conditions: Culture # 1780
[1] = test system: Acinetobacter calcoaceticus; experiment: MIC agar dilution, aerobic and facultative bacteria; conditions: Culture # 1845
Propionibacterium acnes = experiment: MIC agar dilution, anaerobic bacteria; type: cell-based; conditions: Culture # 1775
P. species = experiment: MIC agar dilution, anaerobic bacteria; type: cell-based; conditions: Culture # 1776
C. difficile = experiment: MIC agar dilution, anaerobic bacteria; type: cell-based
Pseudomonas aeruginosa = experiment: MIC agar dilution, aerobic and facultative bacteria
Providencia stuartii = experiment: as above; conditions: Culture # 1831
P. magnus = experiment: MIC agar dilution, anaerobic bacteria; type: cell-based; conditions: Culture # 1778
[2] = test system: Peptostreptococcus asaccharolyticus; experiment: MIC agar dilution, anaerobic bacteria; type: cell-based; conditions: Culture # 1777
Enterococcus faecium = experiment: MIC agar dilution, aerobic and facultative bacteria; conditions: Culture # 1668
Veillonella parvula = experiment: MIC agar dilution, anaerobic bacteria; type: cell-based; conditions: Culture # 2479
Streptococcus agalactiae = experiment: MIC agar dilution, aerobic and facultative bacteria; conditions: Culture # 1670
S. epidermidis = experiment: as above; conditions: Culture # 1666
B. loescheii = experiment: MIC agar dilution, anaerobic bacteria; type: cell-based; conditions: Culture # 1767

`CCc1c(Cl)c(O)c(Cl)c(O)c1C(=O)O[C@H]1[C@H](O)[C@H](OC)[C@H](OC/C2=C\C=C\C[C@H](O)/C(C)=C/[C@H](CC)[C@@H](O[C@@H]3OC(C)(C)[C@@H](OC(=O)C(C)C)[C@H](O)[C@@H]3O)/C(C)=C/C(C)=C/C[C@@H]([C@@H](C)O)OC2=O)O[C@@H]1C` [Tiacumicin B, tiacumicin B] was tested, and the MIC (Nocardia asteroides) was 0.39 µg/mL (≈ 0.369 µM), the MIC (Streptococcus bovis) was 25 µg/mL (≈ 23.6 µM) and the MIC (Clostridium perfringens; Culture # 1771) was 0.008 µg/mL (≈ 0.00756 µM). The MIC (Clostridium perfringens; Culture # 1772) was 0.03 µg/mL (≈ 0.0284 µM), the MIC (Clostridium perfringens; Culture # 1773) was 0.008 µg/mL (≈ 0.00756 µM) and the MIC (P. cepacia) was > 100 µg/mL. For the same molecule, the MIC (Fusobacterium nucleatum) was > 128 µg/mL, the MIC (B. disiens) was 32 µg/mL (≈ 30.2 µM) and the MIC (B. thetaiotaomicron; Culture # 1764) was > 128 µg/mL. The MIC (B. thetaiotaomicron; Culture # 1765) was > 128 µg/mL, the MIC (B. thetaiotaomicron; Culture # 1766) was > 128 µg/mL and the MIC (Fusobacterium species) was > 128 µg/mL. The MIC (Klebsiella pneumoniae) was > 100 µg/mL, the MIC (E. coli; DC-2, Culture # 1674) was > 100 µg/mL and the MIC (E. coli; H560, Culture # 1675) was > 100 µg/mL. The MIC (E. coli; Juhl, Culture # 1673) was > 100 µg/mL, the MIC (E. coli; KNK437, Culture # 1676) was > 100 µg/mL and the MIC (E. coli; SS, Culture # 2489) was > 100 µg/mL. For the same molecule, the MIC (C. ramosum) was > 128 µg/mL, the MIC (Micrococcus luteus; Culture # 2493) was 0.1 µg/mL (≈ 0.0945 µM) and the MIC (Micrococcus luteus; Culture # 2517) was 0.2 µg/mL (≈ 0.189 µM). For the same molecule, the MIC (Staphylococcus aureus; Culture # 1662, brain heart infusion agar, 37° C., 20 hours) was 6.2 µg/mL (≈ 5.86 µM), the MIC (Staphylococcus aureus; Culture # 1664) was 6.2 µg/mL (≈ 5.86 µM) and the MIC (Staphylococcus aureus; Culture # 1690) was 12.5 µg/mL (≈ 11.8 µM). It also gave an MIC (Staphylococcus aureus; Culture # 2124) of 6.2 µg/mL (≈ 5.86 µM), an MIC (Staphylococcus aureus; Culture # 2130) of 12.5 µg/mL (≈ 11.8 µM) and an MIC (Staphylococcus aureus; Culture # 2498) of 6.2 µg/mL (≈ 5.86 µM). The MIC (Staphylococcus aureus; cipro res., Culture # 3384) was 12.5 µg/mL (≈ 11.8 µM), the MIC (S. pyogenes; Culture # 1671) was 25 µg/mL (≈ 23.6 µM) and the MIC (S. pyogenes; const., Culture # 1672) was 3.1 µg/mL (≈ 2.93 µM). The MIC (S. pyogenes; inducible, Culture # 2548) was 6.2 µg/mL (≈ 5.86 µM), the MIC (Mycobacterium smegmatis) was 12.5 µg/mL (≈ 11.8 µM) and the MIC (B. vulgatus; Culture # 1762) was > 128 µg/mL. The MIC (B. vulgatus; Culture # 2481) was > 128 µg/mL, the MIC (Bacteriodes fragilis; Culture # 1756, Wilkins-Chalgren agar, 37° C., 48 hours) was > 128 µg/mL and the MIC (Bacteriodes fragilis; Culture # 1757) was > 128 µg/mL. The MIC (Bacteriodes fragilis; Culture # 1758) was > 128 µg/mL, the MIC (Bacteriodes fragilis; Culture # 1999) was > 128 µg/mL and the MIC (Enterobacter aerogenes) was > 100 µg/mL. The MIC (B. bivius) was 128 µg/mL (≈ 121 µM), the MIC (Candida albicans) was > 100 µg/mL and the MIC (P. anaerobius) was 0.008 µg/mL (≈ 0.00756 µM). The MIC [1] was > 100 µg/mL, the MIC (Propionibacterium acnes) was 4 µg/mL (≈ 3.78 µM) and the MIC (P. species) was 32 µg/mL (≈ 30.2 µM). For the same molecule, the MIC (C. difficile; Culture # 1496) was 0.06 µg/mL (≈ 0.0567 µM), the MIC (C. difficile; Culture # 1497) was 0.06 µg/mL (≈ 0.0567 µM) and the MIC (C. difficile; Culture # 1774) was 0.03 µg/mL (≈ 0.0284 µM). It also gave an MIC (C. difficile; Culture # 2025) of 0.06 µg/mL (≈ 0.0567 µM), an MIC (C. difficile; Culture # 2480) of 0.06 µg/mL (≈ 0.0567 µM) and an MIC (C. difficile; Culture # 2528) of 0.06 µg/mL (≈ 0.0567 µM). For the same molecule, the MIC (C. difficile; Culture # 2529) was 0.06 µg/mL (≈ 0.0567 µM), the MIC (Pseudomonas aeruginosa; Culture # 1679) was > 100 µg/mL and the MIC (Pseudomonas aeruginosa; Culture # 1680) was > 100 µg/mL. For the same molecule, the MIC (Pseudomonas aeruginosa; Culture # 1681) was > 100 µg/mL, the MIC (Pseudomonas aeruginosa; Culture # 1682) was 12.5 µg/mL (≈ 11.8 µM) and the MIC (Pseudomonas aeruginosa; cipro R, Culture # 1919) was > 100 µg/mL. The MIC (Pseudomonas aeruginosa; cipro R, Culture # 1920) was > 100 µg/mL, the MIC (Providencia stuartii) was > 100 µg/mL and the MIC (P. magnus) was 0.5 µg/mL (≈ 0.473 µM). For the same molecule, the MIC [2] was 1 µg/mL (≈ 0.945 µM), the MIC (Enterococcus faecium) was 6.2 µg/mL (≈ 5.86 µM) and the MIC (Veillonella parvula) was 64 µg/mL (≈ 60.5 µM). It also gave an MIC (Streptococcus agalactiae) of 12.5 µg/mL (≈ 11.8 µM), an MIC (S. epidermidis) of 3.1 µg/mL (≈ 2.93 µM) and an MIC (B. loescheii) of 64 µg/mL (≈ 60.5 µM).

Reference: patent US5583115A, “Dialkyltiacumicin compounds” (Abbott Laboratories, priority 1995, dated 1996)
